Test results as given in patent publication US11149035B2, “Chemical compounds as H—PGDS inhibitors” (GlaxoSmithKline Intellectual Property Development Limited, priority 2017, dated 2021).

Molecular target: T1, haematopoietic prostaglandin D synthase (H-PGDS) (Homo sapiens, UniProt O60760)
T1 construct: Full length human H-PGDS cDNA (Invitrogen Ultimate ORF IOH13026) was amplified by PCR; 6-His (N); TEV protease cleavage site (N); made in house; host or cells: E. coli BL21 (DE3*)
Test: H-PGDS RapidFire high throughput mass spectrometry assay (conversion of PGH2 to PGD2)
Assay type: biochemical
Details: 10 nM H-PGDS, PGH2 formed in situ by COX-2 from arachidonic acid; four parameter curve fit; read-out: Potency Range (mean pIC50) (converted)
How it was run: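 His-tagged full-length human H-PGDS from E. coli converts PGH2, generated in situ at ~10 μM from arachidonic acid by FLAG-tagged human COX-2 from Sf9 cells. RapidFire SPE-triple quadrupole MS measures PGD2 against PGF2α as substrate surrogate; percent conversion is calculated.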

T1 sequence (O60760 whole entry): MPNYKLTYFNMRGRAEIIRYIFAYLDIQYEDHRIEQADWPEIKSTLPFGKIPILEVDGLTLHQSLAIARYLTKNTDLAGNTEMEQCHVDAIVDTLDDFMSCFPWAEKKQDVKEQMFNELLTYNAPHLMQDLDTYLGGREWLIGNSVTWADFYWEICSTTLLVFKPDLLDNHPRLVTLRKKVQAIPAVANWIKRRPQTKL

Compound	IC50
CC(C)(O)[C@H]1CC[C@H](NC(=O)c2cnc3nc(N4CCC4)ncc3c2)CC1 [Example 79, 2-(Azetidin-1-yl)-N-((trans)-4-(2-hydroxypropan-2-yl)cyclohexyl)pyrido[2,3-d]pyrimidine-6-carboxamide]	10 to 79.4 nM
COc1ncc2cc(C(=O)N[C@H]3CC[C@H](C(C)(C)O)CC3)cnc2n1 [Example 80, N-((trans)-4-(2-Hydroxypropan-2-yl)cyclohexyl)-2-methoxypyrido[2,3-d]pyrimidine-6-carboxamide]	100 to 1000 nM
